Molecular target: T1, CB-1 receptor (Rattus norvegicus, UniProt P20272)
T1 construct: tissue Pel Freeze Biologicals, Rogers, Ark; host or cells: rat brain membrane homogenate
Assay: CB-1 receptor binding assay ([3H]SR141716A displacement)
Conditions: inhibition of [3H] SR141716A binding, rat brain tissue, 20° C. for 60 minutes
Method: The following assays were designed to detect compounds that inhibit the binding of [3H] SR141716A (selective CB-1 radiolabeled ligand) and [3H] 5-(1,1-dimethyl-heptyl)-2-[5-hydroxy-2-(3-hydroxy-propyl)-cyclohexyl]-phenol (CB-1/CB-2 radiolabeled ligand) to their respective receptors.
PelFreeze brains (available from Pel Freeze Biologicals, Rogers, Ark.) were cut up and placed in tissue preparation buffer (5 mM Tris HCl, pH=7.4 and 2 mM EDTA), polytroned at high speed and kept on ice for 15 minutes. The homogenate was then spun at 1,000×g for 5 minutes at 4° C. The supernatant was recovered and centrifuged at 100,000×G for 1 hour at 4° C. The pellet was then re-suspended in 25 ml of TME ([…] Tris, pH=7.4, 5 mM MgCl2, and 1 mM EDTA) per brain used. A protein assay was performed and 200 μl of tissue totaling 20 μg was added to the assay.
The test compounds were diluted in drug buffer (0.5% BSA, 10% DMSO and TME) and then 25 μl were added to a deep well polypropylene plate. [3H] SR141716A was diluted in a ligand buffer (0.5% BSA plus TME) and 25 μl were added to the plate. A BCA protein assay was used to determine the appropriate tissue concentration and then 200 μl of rat brain tissue at the appropriate concentration was added to the plate. […] In the morning the filters were counted on a Wallac Betaplate™ counter (available from PerkinElmer Life Sciences™, Boston, Mass.).

T1 sequence (P20272 whole entry): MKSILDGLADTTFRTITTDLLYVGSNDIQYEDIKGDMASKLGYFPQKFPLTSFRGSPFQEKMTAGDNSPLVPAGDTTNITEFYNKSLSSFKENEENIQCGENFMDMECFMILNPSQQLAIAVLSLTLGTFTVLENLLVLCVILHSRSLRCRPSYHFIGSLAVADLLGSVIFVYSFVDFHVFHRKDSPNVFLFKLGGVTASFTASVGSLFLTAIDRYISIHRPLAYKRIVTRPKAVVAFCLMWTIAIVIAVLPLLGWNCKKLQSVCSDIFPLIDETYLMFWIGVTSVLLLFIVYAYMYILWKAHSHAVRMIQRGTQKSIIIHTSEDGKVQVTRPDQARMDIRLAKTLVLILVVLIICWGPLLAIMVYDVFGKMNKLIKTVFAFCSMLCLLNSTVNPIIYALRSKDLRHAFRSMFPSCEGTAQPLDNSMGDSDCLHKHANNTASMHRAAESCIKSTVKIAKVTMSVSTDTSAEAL

Cc1c(-c2ncn(C)c2-c2ccccc2)nn(-c2ccccc2Cl)c1-c1ccc(Cl)cc1 [Example 1B-13, 5-(4-Chloro-phenyl)-1-(2-chloro-phenyl)-4-methyl-3-(1-methyl-5-phenyl-1H-imidazol-4-yl)-1H-pyrazole]
binding affinity: 371 nM

— US20040077650A1, “Cannabinoid receptor ligands and uses thereof” (Pfizer Inc., priority 2002, published 2004)
